The values below come from patent US20090220516A1, “Neuroprotection of retinal ganglion cells” (priority 2005, published 2009).

The target in one assay is T1, rat P2X7 receptor (Rattus norvegicus, UniProt Q64663).
T1 sequence (Q64663 1-595): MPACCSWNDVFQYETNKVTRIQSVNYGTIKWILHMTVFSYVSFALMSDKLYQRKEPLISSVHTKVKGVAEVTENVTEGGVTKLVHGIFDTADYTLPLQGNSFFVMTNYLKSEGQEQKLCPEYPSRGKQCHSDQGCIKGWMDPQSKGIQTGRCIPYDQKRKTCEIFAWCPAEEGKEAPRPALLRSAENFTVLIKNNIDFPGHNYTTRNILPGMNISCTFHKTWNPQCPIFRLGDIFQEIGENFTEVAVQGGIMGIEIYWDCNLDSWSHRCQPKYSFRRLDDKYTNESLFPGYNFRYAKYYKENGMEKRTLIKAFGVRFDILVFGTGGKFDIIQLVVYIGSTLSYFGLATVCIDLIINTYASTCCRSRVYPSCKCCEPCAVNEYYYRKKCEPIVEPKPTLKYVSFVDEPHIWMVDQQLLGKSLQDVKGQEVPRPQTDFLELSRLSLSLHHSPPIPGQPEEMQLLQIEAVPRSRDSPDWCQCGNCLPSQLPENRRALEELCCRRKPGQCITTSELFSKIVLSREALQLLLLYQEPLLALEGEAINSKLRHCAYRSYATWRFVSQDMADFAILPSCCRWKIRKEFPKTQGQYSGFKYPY
As to conditions: cited from earlier work.

For the next assay, the system named is retinal ganglion cells. Briefly: Cell viability studies: labeled retinal ganglion cells surviving after 24 hrs in mixed retinal cultures. As to conditions: 300 uM ATP alone, 24 hrs. The assay is classed as cell-based, rat. As to the method:
Pups PD2-6 from untimed pregnant Long-Evan rats (Jackson Laboratory Inc., Bar Harbor, Me.) were back-labeled by the injection of FluoroGold derivative aminostilbamidine (Molecular Probes, Eugene, Oreg.) based upon standard protocols. […] Using a Hamilton syringe affixed to a micromanipulator, a needle was inserted 0.8 mm lateral from the midline and 0.8 mm anterior to Bregma's line and a total of 2.5 μl dye was delivered to each side at a depth of 2 mm and 1 mm. The needle was retracted after a delay of 2 min to allow dye absorption and the wound was closed with 2-3 sutures. Preliminary examination of labeled retinal whole mounts confirmed an even distribution of dye, showing all cells were stained 2 days after injection, with no further increase in the number of labeled cells in subsequent days. Consequently, retinas containing labeled ganglion cells were dissociated 2-6 days after injection. Animals were sacrificed by i.p. injection of 50/5 mg/kg Ketamine/Xylazine followed by an overdose, in accordance with University of Pennsylvania IACUC approved protocols and the ARVO Statement on the Use of Animals in Ophthalmic and Vision Research.
The retina was dissected from each globe, washed in sterile Hanks' balanced salt solution (HBSS, Gibco, Inc Invitrogen Corp., Carlsbad, Calif.), then incubated in HBSS containing activated papain (4.5 U/ml; Worthington Biochemical Corp., Lakewood, N.J.) for 12 minutes at 37° C. Retinas were washed twice and triturated 50 times with a 1-ml glass pipette to dissociate cells. Cells were plated onto twelve 12-mm coverslips previously coated with poly-L-lysine. […] Retinal cells were incubated at 37° C. with 5% CO2.
Drugs were added to the culture medium at the time when cells were plated onto coverslips. […] All counts were performed in a masked fashion. In experiments involving antagonist pretreatment, drugs were added to the medium at the time of plating. After preincubation at 37° C., stock concentrations of BzATP were added directly to the cells to give the final concentration shown.
Data are presented as mean±standard error of the mean. Significance was evaluated using a Student's unpaired t test, with a p value <0.05 signifying significance. For cell viability studies, the number of experiments, n, represents the number of coverslips from which 80 fields were measured and averaged. All values were normalized to the mean control level for that day's matched set of experiments to control for variation in plating efficiency.

The next assay relates to retina eyecup. Put plainly: Pressure-triggered ATP release from the bovine retina eyecup. As to conditions: 30 μM NPPB, 15 minutes preincubation and in medium. An excerpt:
C. ATP release by increased extracellular pressure is inhibited by the general chloride channel blocker NPPB, indicating physiologic significance. […] The ATP levels were normalized with the non-pressure and non NPPB eyecup control levels (white bar). Bars represent the mean±standard error. Numbers indicates the number of retina eyecups per experiment. We performed ANOVA test (Dunnett post-test) to obtain the significant differences indicated by a * symbol (p<0.05) as significant difference with control and ** (p<0.05) as significant difference with the pressure challenged eyecups.

Each structure is given as a SMILES string. pEC50: −log10 of the molar value.

`Nc1ncnc2c1ncn2C1OC(COP(=O)(O)OP(=O)(O)OP(=O)(O)O)C(O)C1O` (stereo not drawn) [ATP]: the pEC50 on rat P2X7 receptor is 3.52. Further, the “effect on ganglion cell survival” value with retinal ganglion cells was “small but significant increase in cell survival”.

In the case of `O=C(O)c1cc([N+](=O)[O-])ccc1NCCCc1ccccc1` [NPPB, 5-nitro-2-(3-phenylpropyl-amino)benzoic acid], the “effect on ATP release induced by 20 mm Hg rise in extracellular pressure” value with retina eyecup is given as “inhibits the ATP release”.
